# What was measured:
# [1] = Dynamic vapor sorption (DVS) analysis; type: physicochemical; settings: between about 2 to about 92% relative humidity (RH) at 25° C.
# Description: Dynamic vapor sorption (DVS) analysis was performed using a DVS Intrinsic 1. The sample (25 mg) was loaded into a sample pan, suspended from a microbalance and exposed to a humidified stream of nitrogen gas. The sample was held for a minimum of 5 min at each level and only progressed to the next humidity level if there was <0.002% change in weight between measurements (interval: 60 seconds) or 240 min had elapsed.
# [2] = 24 h
# Description: (§1) An abbreviated polymorph/solvate screen and approximate solubility determination were performed utilizing each class III solvent and several class II solvents as listed under ICH Guidelines Q3C. […] Form P was chosen as the target polymorph for crystallization.
# [3] = Particle size distribution (PSD); type: physicochemical
# Description: Several other Experiments (Experiment 2, Experiment 3, Experiment 4, Experiment 5, Experiment 7, and Experiment 8) were performed to study the effect of seed loading, seed size and scale on particle size of final product.
# The material as received was characterized by X-Ray Powder Diffraction (XRPD), Polarized Light Microscopy (PLM), Particle Size Distribution (PSD), Thermo-Gravimetric Analysis (TGA) and Differential Scanning Calorimetry (DSC).
# In the second batch, crystals with rod morphology and a length of greater than 200 μm were observed. Two final scaled up batches were performed. A 43 gram batch was produced as small seeds and a 22 gram batch was produced using the first 10 gram batch (Crystallization 1) as large seeds to assess the impact of different size seeds on the process. Scanning electron microscopy (SEM) was used to compliment the polarized light microscope (PLM) and particle size distribution (PSD) measurements.
# [4] = Wet-milling study (ball mill, 30 s, 1 vol. water); type: physicochemical; settings: milled with 1 vol. water
# physchem [5] = settings: 70 °C, organic solvent or mixture, thermodynamic from solid
# Description: as §1
# physchem [6] = type: physicochemical; settings: organic solvent or mixture, thermodynamic from solid
# Description: Crystalline, Form V material of (S)-12-fluoro-4-(2-methylpyridin-3-yl)-7a,8,13,14-tetrahydro-7H-[1,2,4]triazolo[4′,3′:1,6]pyrido[3,2-b]benzofuro[4,3-fg][1,4]oxazonine, free base, was prepared as follows. About 12 mg of Form P material was loaded into a 2 mL vial. […] The solution was stirred overnight and the next day a slurry was observed. The slurry solids were collected and analyzed by XRPD.
# physchem [7] = settings: organic solvent or mixture, thermodynamic from solid
# Description: as §1
# [8] = Salt screening: XRPD form after exposure to 95%+ relative humidity for one day; type: physicochemical; design: key: Am = amorphous; settings: solid dried under vacuum at 50° C., then 95%+ relative humidity for one day
# Description: A stock solution of Form P material of (S)-12-fluoro-4-(2-methylpyridin-3-yl)-7a,8,13,14-tetrahydro-7H-[1,2,4]triazolo[4′,3′:1,6]pyrido[3,2-b]benzofuro[4,3-fg][1,4]oxazonine, free base, was prepared in 2,2,2-trifluoroethanol (50.8 mg/mL). Stock solutions of counter ion were prepared in EtOH.
# Salt formation was carried out at room temperature in 2 mL vials. 25.4 mg of Form P free base material (500 μL stock solution) and 1.1 equivalents of counter ion were added to each vial. Solvent was allowed to evaporate at 40° C. overnight with stirring. […] These vials were kept on the hotplate to continue evaporating (temperature increased to 50° C.), while the more-dry samples were dried further under vacuum for 3 hours at 50° C. The samples still containing solvent at the end of the day were left to stir at 30° C. over the weekend to finish evaporating the solvent. These samples were dried further under vacuum for 3 hours at 50° C.
# Approximately 20 volumes of solvent (0.5 mL) was added to each vial containing the dried solids. The three solvents selected were EtOH, EtOAc, and IPA:water (9:1 vol). Once solvents were added, the mixtures (or solutions) were stirred at room temperature. When slurries were formed, the solids were filtered for XRPD analysis.
# XRPD analysis was done in three stages. XRPD of the wet cake was done for all collected samples. […]
# [9] = type: physicochemical
# Description: Crystalline, Form W material of (S)-12-fluoro-4-(2-methylpyridin-3-yl)-7a,8,13,14-tetrahydro-7H-[1,2,4]triazolo[4′,3′:1,6]pyrido[3,2-b]benzofuro[4,3-fg][1,4]oxazonine, free base, was prepared as follows. About 2.5 mg of (S)-12-fluoro-4-(2-methylpyridin-3-yl)-7a,8,13,14-tetrahydro-7H-[1,2,4]triazolo[4′,3′:1,6]pyrido[3,2-b]benzofuro[4,3-fg][1,4]oxazonine, maleic acid salt (Form 7-A), was loaded into a vial. 1 mL of water was added, and the mixture was warmed to 37° C. Additional water was added to the slurry, which thinned considerably and then appeared to start precipitating a fine white solid. This was viewed as likely disproportionation and additional water was not added. The mixture was stirred overnight, and the following day the fine solid suspended in the solution was collected and analyzed by XRPD. It was observed that the maleic acid salt had disproportionated over the slurry time.
# [10] = Crystallization 1, 10 gram scale, milled Form P as seeds
# [11] = Crystallization 2, 10 gram scale, crystals from Crystallization 1 as seeds
# [12] = Experiment 1, initial process, 0.5 w/w % seed
# [13] = Experiment 2, effect of seed loading, 0.5 w/w % milled seed
# [14] = Experiment 3, effect of seed loading, 3.0 w/w % milled seed
# [15] = Experiment 4, effect of seed size, 1.0 w/w % large seed
# [16] = Experiment 5, effect of seed size, 1.0 w/w % milled seed
# [17] = Experiment 6, wet milling study, after milling
# [18] = Experiment 6, wet milling study, before milling
# [19] = Experiment 7, effect of scale, 3 g scale
# [20] = Experiment 8, effect of scale, 10 g scale
compound,measurement,setting,value
"Cc1ncccc1-c1cc2c(n3cnnc13)NCc1c(F)ccc3c1C(CO3)CO2 (stereo in doubt) [Form E, (S)-12-fluoro-4-(2-methylpyridin-3-yl)-7a,8,13,14-tetrahydro-7H-[1,2,4]triazolo[4′,3′:1,6]pyrido[3,2-b]benzofuro[4,3-fg][1,4]oxazonine]",DVS reversable total mass change,[1],about 10.3 wt. %
"Cc1ncccc1-c1cc2c(n3cnnc13)NCc1c(F)ccc3c1C(CO3)CO2 (stereo in doubt) [Form H, (S)-12-fluoro-4-(2-methylpyridin-3-yl)-7a,8,13,14-tetrahydro-7H-[1,2,4]triazolo[4′,3′:1,6]pyrido[3,2-b]benzofuro[4,3-fg][1,4]oxazonine]",DVS reversable total mass change,[1],about 7.6 wt. %
"Cc1ncccc1-c1cc2c(n3cnnc13)NCc1c(F)ccc3c1C(CO3)CO2 (stereo in doubt) [Form P, (S)-12-fluoro-4-(2-methylpyridin-3-yl)-7a,8,13,14-tetrahydro-7H-[1,2,4]triazolo[4′,3′:1,6]pyrido[3,2-b]benzofuro[4,3-fg][1,4]oxazonine]",purity after slurry (potential degradation),[2],99.9%
same,Particle Size Distribution D(10),[3]; [10],37.2 µm
same,Particle Size Distribution D(50),[3]; [10],115 µm
same,Particle Size Distribution D(90),[3]; [10],196 µm
same,Particle Size Distribution D(10),[3]; [11],23.4 µm
same,Particle Size Distribution D(50),[3]; [11],126 µm
same,Particle Size Distribution D(90),[3]; [11],634 µm
same,Particle Size Distribution (PSD) D10,[3]; [12],19 μm
same,Particle Size Distribution (PSD) D50,[3]; [12],100 μm
same,Particle Size Distribution (PSD) D90,[3]; [12],213 μm
same,Particle Size Distribution (PSD) D10,[3]; [13],17 μm
same,Particle Size Distribution (PSD) D50,[3]; [13],93 μm
same,Particle Size Distribution (PSD) D90,[3]; [13],187 μm
same,Particle Size Distribution (PSD) D10,[3]; [14],7 μm
same,Particle Size Distribution (PSD) D50,[3]; [14],31 μm
same,Particle Size Distribution (PSD) D90,[3]; [14],83 μm
same,Particle Size Distribution (PSD) D10,[3]; [15],28 μm
same,Particle Size Distribution (PSD) D50,[3]; [15],90 μm
same,Particle Size Distribution (PSD) D90,[3]; [15],171 μm
same,Particle Size Distribution (PSD) D10,[3]; [16],15 μm
same,Particle Size Distribution (PSD) D50,[3]; [16],82 μm
same,Particle Size Distribution (PSD) D90,[3]; [16],164 μm
same,Particle Size Distribution (PSD) D10,[3]; [17],11 μm
same,Particle Size Distribution (PSD) D50,[3]; [17],37 μm
same,Particle Size Distribution (PSD) D90,[3]; [17],95 μm
same,Particle Size Distribution (PSD) D10,[3]; [18],32 μm
same,Particle Size Distribution (PSD) D50,[3]; [18],199 μm
same,Particle Size Distribution (PSD) D90,[3]; [18],372 μm
same,Particle Size Distribution (PSD) D10,[3]; [19],11 μm
same,Particle Size Distribution (PSD) D50,[3]; [19],48 μm
same,Particle Size Distribution (PSD) D90,[3]; [19],113 μm
same,Particle Size Distribution (PSD) D10,[3]; [20],11 μm
same,Particle Size Distribution (PSD) D50,[3]; [20],45 μm
same,Particle Size Distribution (PSD) D90,[3]; [20],121 μm
same,D10,[3]; starting material as received,1.99 μm
same,D50,[3]; starting material as received,3.33 μm
same,D90,[3]; starting material as received,5.35 μm
same,crystallinity and solid form purity after wet milling,[4],maintained crystallinity and solid form purity
same,solubility,physchem [5],56.7 mg/mL
same,solubility,physchem [6],167 to 333 mg/mL
same,solubility,physchem [7],> 10 mg/mL
same,DVS reversable total mass change,[1],about 0.53 wt. %
"(S)-12-fluoro-4-(2-methylpyridin-3-yl)-7a,8,13,14-tetrahydro-7H-[1,2,4]triazolo[4′,3′:1,6]pyrido[3,2-b]benzofuro[4,3-fg][1,4]oxazonine [Benzenesulfonic acid (1)]",XRPD Form humidity,[8]; slurry solvent EtOAc,Am
same,XRPD Form humidity,[8]; slurry solvent EtOH,Am
"(S)-12-fluoro-4-(2-methylpyridin-3-yl)-7a,8,13,14-tetrahydro-7H-[1,2,4]triazolo[4′,3′:1,6]pyrido[3,2-b]benzofuro[4,3-fg][1,4]oxazonine [Form 5-A]",DVS reversable total mass change,[1],about 3.1 wt. %
"(S)-12-fluoro-4-(2-methylpyridin-3-yl)-7a,8,13,14-tetrahydro-7H-[1,2,4]triazolo[4′,3′:1,6]pyrido[3,2-b]benzofuro[4,3-fg][1,4]oxazonine [Form 7-A]",stability of salt in water slurry,[9],disproportionated
"(S)-12-fluoro-4-(2-methylpyridin-3-yl)-7a,8,13,14-tetrahydro-7H-[1,2,4]triazolo[4′,3′:1,6]pyrido[3,2-b]benzofuro[4,3-fg][1,4]oxazonine [Form 8-B]",DVS reversable total mass change,[1],about 0.82 wt. %
"(S)-12-fluoro-4-(2-methylpyridin-3-yl)-7a,8,13,14-tetrahydro-7H-[1,2,4]triazolo[4′,3′:1,6]pyrido[3,2-b]benzofuro[4,3-fg][1,4]oxazonine [Form 10-A]",DVS reversable total mass change,[1],about 1.4 wt. %
"(S)-12-fluoro-4-(2-methylpyridin-3-yl)-7a,8,13,14-tetrahydro-7H-[1,2,4]triazolo[4′,3′:1,6]pyrido[3,2-b]benzofuro[4,3-fg][1,4]oxazonine [Form 13-A]",DVS reversable total mass change,[1],about 0.97 wt. %

# From patent US20240368185A1, “MACROCYCLIC AZOLOPYRIDINES” (Fulcrum Therapeutics, Inc., priority 2021, published 2024)
